These results are taken from patent publication US10975068B2, “6-aminopyridin-3-yl thiazoles as modulators of RORγT” (Janssen Pharmaceutica NV, priority 2016, dated 2021).

Molecules are shown by their SMILES.

One experiment has as its system obese diabetic mice. Conditions: cited from earlier work.
For experiment [1], the target named is human RORγt ligand binding domain (RORγt LBD) (Homo sapiens (Human), UniProt P51449). In words: RORγt ThermoFluor® assay (thermal shift binding). Conditions: read-out: ThermoFluor® Assay, Kd. Summed up:
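His-tagged human RORγt LBD (0.065 mg/mL) with 60 μM 1,8-ANS in 100 mM Hepes pH 7.0, 10 mM NaCl, 2.5 mM GSH, 0.002% Tween-20 was heated at 1 °C/min.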
(DSF heats the sample and reads unfolding from a dye or from intrinsic fluorescence.)

The next experiment deals with full-length human RORγt (Homo sapiens (Human), UniProt P51449). In words: RORγt (full-length human) reporter assay, Conditions A. The class given is cell-based. The note with it: Conditions A; for IC50: read-out: RORγt (FL) Reporter Assay A, IC50. Summed up: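 HEK293T cells transiently co-transfected with GAL4-DBD–full-length human RORγt plus GAL4-firefly and CMV-Renilla luciferase reporters were treated with compound 16–20 h overnight in 1.1% FBS, 0.1% DMSO.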
full-length human RORγt, sequence (P51449 other isoform, or with tags, fused parts or gaps): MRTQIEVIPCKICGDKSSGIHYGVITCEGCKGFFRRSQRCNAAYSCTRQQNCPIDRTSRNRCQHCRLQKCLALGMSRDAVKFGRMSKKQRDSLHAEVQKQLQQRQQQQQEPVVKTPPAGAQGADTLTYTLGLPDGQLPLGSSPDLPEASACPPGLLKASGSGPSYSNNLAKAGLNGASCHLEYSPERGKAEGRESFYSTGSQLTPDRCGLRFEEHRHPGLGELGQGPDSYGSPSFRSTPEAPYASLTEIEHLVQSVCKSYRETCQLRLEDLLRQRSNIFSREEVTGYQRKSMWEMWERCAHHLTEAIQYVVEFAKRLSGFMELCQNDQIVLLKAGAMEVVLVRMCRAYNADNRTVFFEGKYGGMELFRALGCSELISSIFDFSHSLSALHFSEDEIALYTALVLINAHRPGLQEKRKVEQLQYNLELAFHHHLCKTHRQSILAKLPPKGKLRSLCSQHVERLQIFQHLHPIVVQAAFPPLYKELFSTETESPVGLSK
(A reporter such as luciferase makes a cellular process visible.)

Experiment [2] relates to IL-17 production by CD4 T cells. In words: Human Th17 assay. The class given is cell-based. The note with it: read-out: Human Th17 Assay, IC50. An excerpt:
The human Th17 assay tests the effect of RORγt modulatory compounds on IL-17 production by CD4 T cells under conditions which favor Th17 differentiation. Total CD4^+ T cells were isolated from the peripheral blood mononuclear cells (PBMC) of healthy donors using a CD4^+ T cell isolation kit II, following the manufacturer's instructions (Miltenyi Biotec). Cells were resuspended in a medium of RPMI-1640 supplemented with 10% fetal bovine serum, penicillin, streptomycin, glutamate, and β-mercaptoethanol and were added to 96-well plates at 1.5×10^5 per 100 μL per well. 50 μL of compound at titrated concentrations in DMSO were added into each well at final DMSO concentration at 0.2%. Cells were incubated for 1 hour, then 50 μL of Th17 cell differentiation medium was added to each well. The final concentrations of antibodies and cytokines (R&D Systems) in differentiation medium were: 3×10^6/mL anti-CD3/CD28 beads (prepared using human T cell activation/expansion kit, Miltenyi Biotec), 10 μg/mL anti-IL4, 10 μg/mL anti-IFNγ, 10 ng/mL IL1β, 10 ng/mL IL23, 50 ng/mL IL6, 3 ng/mL TGFβ and 20 U/mL IL2. Cells were cultured at 37° C. and 5% CO2 for 3 days. Supernatants were collected and the accumulated IL-17 in culture was measured by using MULTI-SPOT® Cytokine Plate following manufacture's instruction (Meso Scale Discovery). The plate was read using Sector Imager 6000, and IL-17 concentration was extrapolated from the standard curve. The IC50s were determined by GraphPad.

The next experiment concerns mice. The note with it: cited from earlier work.

human RORγt ligand binding domain (RORγt LBD), sequence (P51449 other isoform, or with tags, fused parts or gaps): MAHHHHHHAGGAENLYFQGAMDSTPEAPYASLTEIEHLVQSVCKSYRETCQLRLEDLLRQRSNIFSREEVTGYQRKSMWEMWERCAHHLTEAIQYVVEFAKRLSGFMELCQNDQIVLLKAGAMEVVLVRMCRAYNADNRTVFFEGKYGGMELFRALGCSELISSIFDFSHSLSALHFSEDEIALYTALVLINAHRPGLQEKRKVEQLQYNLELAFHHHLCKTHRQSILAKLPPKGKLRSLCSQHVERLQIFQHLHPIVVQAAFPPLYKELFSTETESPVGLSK

As to `CC(=O)N1CCN(Cc2ccc(-c3ccc(C(O)(C(F)(F)F)C(F)(F)F)cc3)cc2)CC1` [SR1555], in the experiment with obese diabetic mice, the body weight entry is reported as “reduced”, the fat mass entry is recorded as “significant reduction”, the food intake entry is listed as “modest reduction” and the insulin sensitivity result is “improved”.
As for `CC(C)(O)CNC(=O)c1nc(C(=O)N2CCC(F)CC2)c(-c2cnc(NC3CCCCC3)cc2C(F)(F)F)s1` [Example 3, 5-(6-(Cyclohexylamino)-4-(trifluoromethyl)pyridin-3-yl)-4-(4-fluoropiperidine-1-carbonyl)-N-(2-hydroxy-2-methylpropyl)thiazole-2-carboxamide], the Kd (commonly the free concentration of one partner at which half of the binding sites on the other are occupied at equilibrium, for simple one-to-one binding) in experiment [1] was determined as 0.0096 µM. The “RORγt (FL) Reporter Assay A, % inhibition (value marked **)” value at full-length human RORγt (marked **: footnote not shown) is on record as 106** %. Also, the values for the half-maximal inhibitory concentration (IC50) (on full-length human RORγt; in experiment [2]) were 0.035 µM and 0.04 µM, respectively.
In the case of `C[C@H]1CCCN1C(=O)c1nc(C(=O)NCC(C)(C)O)sc1-c1cnc(NC2CCCCC2)cc1C(F)(F)F` [Example 19, (S)-5-(6-(Cyclohexylamino)-4-(trifluoromethyl)pyridin-3-yl)-N-(2-hydroxy-2-methylpropyl)-4-(2-methylpyrrolidine-1-carbonyl)thiazole-2-carboxamide], the Kd in experiment [1] was 0.0044 µM. Moreover, the results for the half-maximal inhibitory concentration (IC50) (on full-length human RORγt; in experiment [2]) were 0.032 µM and 0.04 µM, respectively. Further, the inhibition – broadly, the drop in the measured response relative to a control, in per cent – at 6 µM on full-length human RORγt (read-out: RORγt (FL) Reporter Assay A, % inhibition @ 6 μM, @ 6 μM) amounted to 99%.
For `CC(=O)Nc1nc(C)c(S(=O)(=O)Nc2ccc(C(O)(C(F)(F)F)C(F)(F)F)cc2)s1` [SR1001], the Th17-dependent learned helplessness result with mice was “reduced Th17-dependent learned helplessness”.
